Test results published in ChEMBL document CHEMBL1255467, “Comparative in vitro antimicrobial activities of torezolid (TR-700), the active moiety of a new oxazolidinone, torezolid phosphate (TR-701), determination of tentative disk diffusion interpretive criteria, and quality control ranges” (2010).

Legend:
Enterococcus faecium [1] = assay: Antimicrobial activity against vancomycin-susceptible Enterococcus faecium by broth dilution method; assay type: functional
Streptococcus pneumoniae [2] = assay: Antimicrobial activity against penicillin-intermediate Streptococcus pneumoniae by broth dilution method; assay type: functional
Moraxella catarrhalis = assay: Antimicrobial activity against Moraxella catarrhalis by broth dilution method; assay type: functional
Enterococcus faecalis [3] = assay: Antimicrobial activity against vancomycin-susceptible Enterococcus faecalis by broth dilution method; assay type: functional
Streptococcus pneumoniae [4] = assay: Antimicrobial activity against Streptococcus pneumoniae by broth dilution method; assay type: functional
Enterococcus faecalis [5] = assay: Antimicrobial activity against vancomycin-resistant Enterococcus faecalis by broth dilution method; assay type: functional
Haemophilus influenzae [6] = assay: Antimicrobial activity against ampicillin-nonsusceptible beta-lactamase negative Haemophilus influenzae by broth dilution method; assay type: functional
Streptococcus pneumoniae [7] = assay: Antimicrobial activity against penicillin-susceptible Streptococcus pneumoniae by broth dilution method; assay type: functional
Corynebacterium jeikeium = assay: Antimicrobial activity against Corynebacterium jeikeium by broth dilution method; assay type: functional
Listeria monocytogenes = assay: Antimicrobial activity against Listeria monocytogenes by broth dilution method; assay type: functional
Haemophilus influenzae [8] = assay: Antimicrobial activity against beta-lactamase negative Haemophilus influenzae by broth dilution method; assay type: functional
Staphylococcus sp. [9] = assay: Antimicrobial activity against methicillin-susceptible coagulase-negative Staphylococcus by broth dilution method; assay type: functional
Staphylococcus aureus [10] = assay: Antimicrobial activity against vancomycin-nonsusceptible Staphylococcus aureus by broth dilution method; assay type: functional
Streptococcus sp = assay: Antimicrobial activity against streptococcal sp. by broth dilution method
Staphylococcus aureus [11] = assay: Antimicrobial activity against linezolid-resistant Staphylococcus aureus by broth dilution method; assay type: functional
Staphylococcus aureus [12] = assay: Antimicrobial activity against Staphylococcus aureus by broth dilution method; assay type: functional
Staphylococcus sp. [13] = assay: Antimicrobial activity against Staphylococcus sp. by broth dilution method; assay type: functional
Haemophilus influenzae [14] = assay: Antimicrobial activity against beta-lactamase positive Haemophilus influenzae by broth dilution method; assay type: functional; details: for MIC90: read-out: MIC90
Haemophilus influenzae [15] = assay: Antimicrobial activity against Haemophilus influenzae by broth dilution method; assay type: functional
Enterococcus faecium [16] = assay: Antimicrobial activity against vancomycin-resistant Enterococcus faecium by broth dilution method; assay type: functional
Staphylococcus sp. [17] = assay: Antimicrobial activity against methicillin-resistant coagulase-negative Staphylococcus by broth dilution method; assay type: functional
Staphylococcus aureus [18] = assay: Antimicrobial activity against methicillin-susceptible Staphylococcus aureus by broth dilution method; assay type: functional
Streptococcus pneumoniae [19] = assay: Antimicrobial activity against penicillin-resistant Streptococcus pneumoniae by broth dilution method; assay type: functional
Streptococcus viridans = assay: Antimicrobial activity against Streptococcus viridans by broth dilution method; assay type: functional
Staphylococcus aureus [20] = assay: Antimicrobial activity against methicillin-resistant Staphylococcus aureus by broth dilution method; assay type: functional; details: Staphylococcus aureus
Enterococcus sp. = assay: Antimicrobial activity against Enterococcus by broth dilution method; assay type: functional

C[C@H]1COc2c(N3CCN(C)CC3)c(F)cc3c(=O)c(C(=O)O)cn1c23.C[C@H]1COc2c(N3CCN(C)CC3)c(F)cc3c(=O)c(C(=O)O)cn1c23.O [LEVOFLOXACIN]
> 16 µg/mL: MIC90 (Enterococcus faecium [1]; Enterococcus faecium) | MIC90 (Enterococcus faecalis [3]; Enterococcus faecalis) | MIC50 (Enterococcus faecalis [5]) | MIC (Corynebacterium jeikeium) | MIC50 (Corynebacterium jeikeium) | MIC90 (Corynebacterium jeikeium) | MIC90 (Staphylococcus aureus [10]; Staphylococcus aureus) | MIC50 (Staphylococcus aureus [11]) | MIC90 (Staphylococcus aureus [12]; Staphylococcus aureus) | MIC90 (Staphylococcus sp. [13]; Staphylococcus sp.) | MIC50 (Enterococcus faecium [16]) | MIC50 (Enterococcus sp.; Enterococcus sp.) | MIC90 (Enterococcus sp.; Enterococcus sp.)
0.5 µg/mL: MIC90 (Staphylococcus sp. [9]; Staphylococcus sp.) | MIC50 (Staphylococcus sp. [13]; Staphylococcus sp.)
16 µg/mL: MIC50 (Staphylococcus aureus [10]; Staphylococcus aureus)
2 µg/mL: MIC90 (Streptococcus viridans)
8 µg/mL: MIC50 (Staphylococcus sp. [17]) | MIC50 (Staphylococcus aureus [20])
4 µg/mL: MIC50 (Enterococcus faecium [1]; Enterococcus faecium) | MIC50 (Staphylococcus aureus [12]; Staphylococcus aureus) | MIC90 (Staphylococcus aureus [18]; Staphylococcus aureus)
0.12 µg/mL: MIC (Haemophilus influenzae [6]; Haemophilus influenzae) | MIC50 (Haemophilus influenzae [6]; Haemophilus influenzae) | MIC90 (Haemophilus influenzae [6]; Haemophilus influenzae) | MIC (Haemophilus influenzae [8]; Haemophilus influenzae) | MIC50 (Haemophilus influenzae [8]; Haemophilus influenzae) | MIC90 (Haemophilus influenzae [8]; Haemophilus influenzae) | MIC (Haemophilus influenzae [14]; Haemophilus influenzae) | MIC50 (Haemophilus influenzae [14]; Haemophilus influenzae) | MIC90 (Haemophilus influenzae [14]; Haemophilus influenzae) | MIC (Haemophilus influenzae [15]; Haemophilus influenzae) | MIC50 (Haemophilus influenzae [15]; Haemophilus influenzae) | MIC90 (Haemophilus influenzae [15]; Haemophilus influenzae)
1 µg/mL: MIC50 (Streptococcus pneumoniae [2]; Streptococcus pneumoniae) | MIC90 (Streptococcus pneumoniae [2]; Streptococcus pneumoniae) | MIC50 (Enterococcus faecalis [3]; Enterococcus faecalis) | MIC50 (Streptococcus pneumoniae [4]; Streptococcus pneumoniae) | MIC90 (Streptococcus pneumoniae [4]; Streptococcus pneumoniae) | MIC50 (Streptococcus pneumoniae [7]; Streptococcus pneumoniae) | MIC90 (Streptococcus pneumoniae [7]; Streptococcus pneumoniae) | MIC (Listeria monocytogenes) | MIC50 (Listeria monocytogenes) | MIC90 (Listeria monocytogenes) | MIC50 (Streptococcus sp; Streptococcus sp.) | MIC90 (Streptococcus sp; Streptococcus sp.) | MIC50 (Streptococcus pneumoniae [19]) | MIC90 (Streptococcus pneumoniae [19]) | MIC50 (Streptococcus viridans)
0.06 µg/mL: MIC50 (Moraxella catarrhalis) | MIC90 (Moraxella catarrhalis)
0.25 µg/mL: MIC50 (Staphylococcus sp. [9]; Staphylococcus sp.) | MIC50 (Staphylococcus aureus [18]; Staphylococcus aureus)

CC(=O)NC[C@H]1CN(c2ccc(N3CCOCC3)c(F)c2)C(=O)O1 [LINEZOLID]
> 8 µg/mL: MBC (Enterococcus faecium [1]; Enterococcus faecium) | MBC (Enterococcus faecalis [3]; Enterococcus faecalis) | MBC (Haemophilus influenzae [6]; Haemophilus influenzae) | MIC (Haemophilus influenzae [6]; Haemophilus influenzae) | MIC50 (Haemophilus influenzae [6]; Haemophilus influenzae) | MIC90 (Haemophilus influenzae [6]; Haemophilus influenzae) | MBC (Haemophilus influenzae [8]; Haemophilus influenzae) | MIC50 (Haemophilus influenzae [8]; Haemophilus influenzae) | MIC90 (Haemophilus influenzae [8]; Haemophilus influenzae) | MBC (Staphylococcus aureus [11]) | MIC50 (Staphylococcus aureus [11]) | MIC90 (Staphylococcus aureus [11]) | MBC (Haemophilus influenzae [14]; Haemophilus influenzae) | MIC (Haemophilus influenzae [14]; Haemophilus influenzae) | MIC50 (Haemophilus influenzae [14]; Haemophilus influenzae) | MIC90 (Haemophilus influenzae [14]; Haemophilus influenzae) | MBC (Haemophilus influenzae [15]; Haemophilus influenzae) | MIC50 (Haemophilus influenzae [15]; Haemophilus influenzae) | MIC90 (Haemophilus influenzae [15]; Haemophilus influenzae) | MBC (Staphylococcus sp. [17])
4 µg/mL: MBC50 (Streptococcus pneumoniae [2]) | MBC50 (Streptococcus pneumoniae [4]) | MBC50 (Streptococcus pneumoniae [7]) | MBC90 (Staphylococcus aureus [10]) | MIC90 (Staphylococcus aureus [10]; Staphylococcus aureus) | MIC90 (Enterococcus faecium [16]) | MIC90 (Staphylococcus sp. [17]) | MBC (Streptococcus pneumoniae [19]) | MIC90 (Staphylococcus aureus [20])
2 µg/mL: MIC (Enterococcus faecium [1]; Enterococcus faecium) | MIC50 (Enterococcus faecium [1]; Enterococcus faecium) | MIC90 (Enterococcus faecium [1]; Enterococcus faecium) | MIC90 (Streptococcus pneumoniae [2]; Streptococcus pneumoniae) | MIC50 (Enterococcus faecalis [3]; Enterococcus faecalis) | MIC90 (Enterococcus faecalis [3]; Enterococcus faecalis) | MIC90 (Streptococcus pneumoniae [4]; Streptococcus pneumoniae) | MIC50 (Enterococcus faecalis [5]) | MIC90 (Enterococcus faecalis [5]) | MIC90 (Streptococcus pneumoniae [7]; Streptococcus pneumoniae) | MIC (Listeria monocytogenes) | MIC50 (Listeria monocytogenes) | MIC90 (Listeria monocytogenes) | MIC90 (Staphylococcus sp. [9]; Staphylococcus sp.) | MBC50 (Staphylococcus aureus [10]) | MBC (Staphylococcus aureus [10]; Staphylococcus aureus) | MIC50 (Staphylococcus aureus [10]; Staphylococcus aureus) | MIC90 (Streptococcus sp; Streptococcus sp.) | MIC50 (Staphylococcus aureus [12]; Staphylococcus aureus) | MIC90 (Staphylococcus aureus [12]; Staphylococcus aureus) | MIC50 (Staphylococcus sp. [13]; Staphylococcus sp.) | MIC90 (Staphylococcus sp. [13]; Staphylococcus sp.) | MIC50 (Enterococcus faecium [16]) | MIC50 (Staphylococcus aureus [18]; Staphylococcus aureus) | MIC90 (Staphylococcus aureus [18]; Staphylococcus aureus) | MIC90 (Streptococcus pneumoniae [19]) | MIC50 (Streptococcus viridans) | MIC90 (Streptococcus viridans) | MIC50 (Staphylococcus aureus [20]) | MIC50 (Enterococcus sp.; Enterococcus sp.) | MIC90 (Enterococcus sp.; Enterococcus sp.)
> 4 µg/mL: MBC (Enterococcus faecium [16]) | MBC (Staphylococcus aureus [18]; Staphylococcus aureus) | MBC (Enterococcus sp.; Enterococcus sp.)
> 2 µg/mL: MBC (Streptococcus pneumoniae [2]; Streptococcus pneumoniae) | MBC (Streptococcus pneumoniae [4]; Streptococcus pneumoniae) | MBC (Streptococcus pneumoniae [7]; Streptococcus pneumoniae) | MBC (Staphylococcus sp. [9]; Staphylococcus sp.) | MBC (Streptococcus sp; Streptococcus sp.) | MBC (Staphylococcus aureus [12]; Staphylococcus aureus) | MBC (Staphylococcus sp. [13]; Staphylococcus sp.)
>8 µg/mL: MBC50 (Enterococcus faecium [1]) | MBC90 (Enterococcus faecium [1]) | MBC50 (Enterococcus faecalis [3]) | MBC90 (Enterococcus faecalis [3]) | MBC50 (Haemophilus influenzae [6]) | MBC90 (Haemophilus influenzae [6]) | MBC50 (Haemophilus influenzae [8]) | MBC90 (Haemophilus influenzae [8]) | MBC50 (Staphylococcus sp. [9]) | MBC90 (Staphylococcus sp. [9]) | MBC90 (Streptococcus sp) | MBC90 (Staphylococcus aureus [12]) | MBC90 (Staphylococcus sp. [13]) | MBC50 (Haemophilus influenzae [14]) | MBC90 (Haemophilus influenzae [14]) | MBC50 (Haemophilus influenzae [15]) | MBC90 (Haemophilus influenzae [15]) | MBC50 (Staphylococcus aureus [18]) | MBC90 (Staphylococcus aureus [18]) | MBC50 (Enterococcus sp.) | MBC90 (Enterococcus sp.)
8 µg/mL: MBC90 (Streptococcus pneumoniae [2]) | MIC (Moraxella catarrhalis) | MIC50 (Moraxella catarrhalis) | MIC90 (Moraxella catarrhalis) | MBC90 (Streptococcus pneumoniae [4]) | MBC90 (Streptococcus pneumoniae [7]) | MBC50 (Streptococcus sp) | MBC50 (Staphylococcus aureus [12]) | MBC50 (Staphylococcus sp. [13])
1 µg/mL: MIC50 (Streptococcus pneumoniae [2]; Streptococcus pneumoniae) | MIC50 (Streptococcus pneumoniae [4]; Streptococcus pneumoniae) | MIC50 (Streptococcus pneumoniae [7]; Streptococcus pneumoniae) | MIC50 (Corynebacterium jeikeium) | MIC90 (Corynebacterium jeikeium) | MIC50 (Staphylococcus sp. [9]; Staphylococcus sp.) | MIC50 (Streptococcus sp; Streptococcus sp.) | MIC50 (Staphylococcus sp. [17]) | MIC50 (Streptococcus pneumoniae [19])
